From PubChem BioAssay (NCI)
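GI50 is the concentration that inhibits growth by half. At the TGI there is no net growth.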

How the values were obtained:
Assay in all cases: growth of human tumour cells (NCI), 384-well format
HCT-116 colon = test system: HCT-116 colon
UACC-62 melanoma = test system: UACC-62 melanoma
DU-145 prostate = test system: DU-145 prostate
NCI/ADR-RES ovarian = test system: NCI/ADR-RES ovarian
EKVX NSCLC = test system: EKVX NSCLC
MDA-MB-468 breast = test system: MDA-MB-468 breast
SW-620 colon = test system: SW-620 colon
IGROV1 ovarian = test system: IGROV1 ovarian
UO-31 renal = test system: UO-31 renal
SF-295 CNS = test system: SF-295 CNS
SK-OV-3 ovarian = test system: SK-OV-3 ovarian
NCI-H226 lung = test system: NCI-H226 lung
PC-3 prostate = test system: PC-3 prostate
K-562 leukemia = test system: K-562 leukemia
HS 578T breast = test system: HS 578T breast
M14 melanoma = test system: M14 melanoma
KM12 colon = test system: KM12 colon
NCI-H460 NSCLC = test system: NCI-H460 NSCLC
SR leukemia = test system: SR leukemia
LOX IMVI melanoma = test system: LOX IMVI melanoma
HT29 colon = test system: HT29 colon
A498 renal = test system: A498 renal
MDA-MB-435 melanoma = test system: MDA-MB-435 melanoma
NCI-H322M lung = test system: NCI-H322M lung
MDA-MB-231 breast = test system: MDA-MB-231 breast
OVCAR-8 ovarian = test system: OVCAR-8 ovarian
UACC-257 melanoma = test system: UACC-257 melanoma
COLO 205 colon = test system: COLO 205 colon
786-0 renal = test system: 786-0 renal

## CS(=O)(=O)N1CCc2c(-c3cnc(N)nc3)nc(N3CCOCC3)nc21
HCT-116 colon
  GI50: 1060 nM
  TGI: > 100000 nM
UACC-62 melanoma
  GI50: 739 nM
  TGI: 4090 nM
DU-145 prostate
  GI50: 661 nM
  TGI: 8570 nM
NCI/ADR-RES ovarian
  GI50: 2600 nM
  TGI: > 100000 nM
EKVX NSCLC
  GI50: 411 nM
  TGI: 3830 nM
MDA-MB-468 breast
  GI50: 391 nM
  TGI: 2320 nM
SW-620 colon
  GI50: 2640 nM
  TGI: > 100000 nM
IGROV1 ovarian
  GI50: 123 nM
  TGI: 568 nM
UO-31 renal
  GI50: 489 nM
  TGI: 7600 nM
SF-295 CNS
  GI50: 537 nM
  TGI: 2990 nM
SK-OV-3 ovarian
  GI50: 170 nM
  TGI: 1360 nM
NCI-H226 lung
  GI50: 380 nM
  TGI: 3940 nM
PC-3 prostate
  GI50: 340 nM
  TGI: 4450 nM
K-562 leukemia
  GI50: 3650 nM
  TGI: > 100000 nM
HS 578T breast
  GI50: 465 nM
  TGI: 3000 nM
M14 melanoma
  GI50: 932 nM
  TGI: > 100000 nM
KM12 colon
  GI50: 2230 nM
  TGI: > 100000 nM
NCI-H460 NSCLC
  GI50: 256 nM
  TGI: 31300 nM
SR leukemia
  GI50: 116 nM
  TGI: 551 nM
LOX IMVI melanoma
  GI50: 1010 nM
  TGI: 28400 nM
HT29 colon
  GI50: 334 nM
  TGI: > 100000 nM
A498 renal
  GI50: 428 nM
  TGI: 2730 nM
MDA-MB-435 melanoma
  GI50: 1490 nM
  TGI: 94500 nM
NCI-H322M lung
  GI50: 426 nM
  TGI: 9380 nM
MDA-MB-231 breast
  GI50: 900 nM
  TGI: > 100000 nM
OVCAR-8 ovarian
  GI50: 1010 nM
  TGI: > 100000 nM
UACC-257 melanoma
  GI50: 2120 nM
  TGI: > 100000 nM
COLO 205 colon
  GI50: 477 nM
  TGI: > 100000 nM
786-0 renal
  GI50: 1710 nM
  TGI: 17800 nM
